Measurements reported in patent US6417212B1, “Modulators of peroxisome proliferator activated receptors” (Eli Lilly & Company, priority 1999, dated 2002).
pIC50: −log10 of the molar value.

What was measured:
[1] = target: T1, huPPARα (Homo sapiens, UniProt Q07869); experiment: DNA-dependent binding (ABCD binding), SPA, huPPARα; conditions: displacement of tritium-labeled PPARα agonist radioligand
T1 sequence (Q07869 1-468): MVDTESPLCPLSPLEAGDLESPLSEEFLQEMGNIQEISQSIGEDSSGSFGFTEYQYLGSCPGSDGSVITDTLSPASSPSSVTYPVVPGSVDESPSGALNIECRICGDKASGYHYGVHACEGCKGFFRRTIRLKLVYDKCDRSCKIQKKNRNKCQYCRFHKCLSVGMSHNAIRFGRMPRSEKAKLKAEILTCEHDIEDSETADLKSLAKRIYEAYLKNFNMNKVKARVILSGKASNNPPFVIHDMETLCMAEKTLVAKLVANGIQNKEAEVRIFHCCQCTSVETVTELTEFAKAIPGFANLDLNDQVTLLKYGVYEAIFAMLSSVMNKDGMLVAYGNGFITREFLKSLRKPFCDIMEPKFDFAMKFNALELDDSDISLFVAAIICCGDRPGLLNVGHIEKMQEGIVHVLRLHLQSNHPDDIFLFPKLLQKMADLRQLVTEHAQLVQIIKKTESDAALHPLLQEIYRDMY
T1 sequence (P19793 1-462 partner): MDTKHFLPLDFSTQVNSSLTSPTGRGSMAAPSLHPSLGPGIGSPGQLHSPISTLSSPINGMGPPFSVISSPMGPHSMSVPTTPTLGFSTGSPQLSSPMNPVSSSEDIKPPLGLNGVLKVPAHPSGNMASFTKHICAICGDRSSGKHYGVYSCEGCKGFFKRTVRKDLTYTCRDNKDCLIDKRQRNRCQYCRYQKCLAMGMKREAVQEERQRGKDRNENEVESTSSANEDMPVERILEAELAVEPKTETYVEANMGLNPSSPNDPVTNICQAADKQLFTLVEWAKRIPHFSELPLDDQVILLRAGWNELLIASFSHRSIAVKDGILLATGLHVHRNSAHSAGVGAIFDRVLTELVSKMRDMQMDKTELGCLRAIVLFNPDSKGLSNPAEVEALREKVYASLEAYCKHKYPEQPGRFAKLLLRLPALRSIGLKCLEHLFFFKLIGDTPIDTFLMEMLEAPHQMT
Description: DNA-dependent binding (ABCD binding) was carried out using SPA technology with PPAR receptors. Tritium-labeled PPARγ and PPARα agonists were used as radioligands for generating displacement curves and IC50 values with compounds of the invention. Cotransfection assays were carried out in CV-1 cells. The reporter plasmid contained an acylCoA oxidase (AOX) PPRE and TK promoter upstream of the luciferase reporter cDNA. Appropriate PPARs and RXRα were constitutively expressed using plasmids containing the CMV promoter. […] In order to eliminate such interference, a GAL4 chimeric system was used in which the DNA binding domain of the transfected PPAR was replaced by that of GAL4, and the GAL4 response element was utilized in place of the AOX PPRE. Cotransfection efficacy was determined relative to PPARα agonist and […] reference molecules. Efficacies were determined by computer fit to a concentration-response curve, or in some cases at a single high concentration of agonist (10 μM). For binding or cotransfection studies with receptors other than PPARs, similar assays were carried out using appropriate ligands, receptors, reporter constructs, etc., for that particular receptor.
These studies were carried out to evaluate the ability of compounds of the invention to bind to and/or activate various nuclear transcription factors, particularly huPPARα (“hu” indicates “human”) and huPPARγ. These studies provide in vitro data concerning efficacy and selectivity of compounds of the invention. Furthermore, binding and cotransfection data for compounds of the invention were compared with corresponding data for marketed compounds that act on either huPPARα or huPPARγ.

[2] = system: db/db mice; experiment: Evaluation of glucose levels in db/db mice; type: in vivo; conditions: Mus musculus, 168 h; 30 mg/kg daily oral gavage for 7 days; 100% = glucose not different from lean values; read-out: Glucose Normalisation
Description: After an acclimation period of 2 weeks, animals were individually identified by ear notches, weighed, and bled via the tail vein for determination of initial glucose levels. Blood was collected (100 μl) from unfasted animals by wrapping each mouse in a towel, cutting the tip of the tail with a scalpel, and milking blood from the tail into a heparinized capillary tube (Fisher) balanced on the edge of the bench. Sample was discharged into a heparinized microtainer with gel separator (VWR) and retained on ice. Plasma was obtained after centrifugation at 4° C. and glucose measured immediately. Remaining plasma was frozen until the completion of the experiment, when glucose and triglycerides were assayed in all samples. Animals were grouped based on initial glucose levels and body weights. Beginning the following morning, mice were dosed daily by oral gavage for 7 days using a 20 gauge, 1½″ curved disposable feeding needle. […] On day 7, mice were weighed and bled (tail vein) 3 hours after dosing. Twenty-four hours after the 7th dose (i.e., day 8), animals were bled again (tail vein). Samples obtained from conscious animals on days 0, 7 and 8 were assayed for glucose. After the 24 hour bleed, animals were weighed and dosed for the final time. Three hours after dosing on day 8, animals were anesthetized by inhalation of isoflurane and blood obtained via cardiac puncture (0.5-0.7 ml). Whole blood was transferred to serum separator tubes, chilled on ice and permitted to clot. Serum was obtained after centrifugation at 4° C. and frozen until analysis for compound levels. After sacrifice by cervical dislocation, the liver, heart and epididymal fat pads were excised and weighed.
The absorbance of the dye produced is linearly related to the analyte in the sample. The assays were further modified in our laboratory for use in a 96 well format. […] An additional aliquot of sample, pipetted to a third well and diluted in 200 μl water, provided a blank for each specimen. […] Sample absorbances were compared to a standard curve (100-800, 10-500, and 100-400 mg/dl for glucose, triglycerides and total cholesterol, respectively). […] All samples from an experiment were assayed at the same time to minimize inter-assay variability.

Row | pIC50 [1] | Compound | inhibition in vivo at 30 mg/kg [2] [%]
1 | 6.81 | Cc1oc(-c2ccc(-c3c(F)cccc3F)cc2)nc1CCOc1ccc(OC(C)(C)C(=O)O)cc1 [Example 14, 2-(4-{2-[2-(2′,6′-Difluorobiphenyl-4-yl)-5-methyloxazol-4-yl]-ethoxy}-phenoxy)-2-methylpropionic acid] | 134
2 | 7.01 | Cc1oc(-c2ccc(-c3ccccc3)cc2)nc1CCOc1cccc(OC(C)(C)C(=O)O)c1 [Example 21, 2-{3-[2-(2-Biphenyl-4-yl-5-methyloxazol-4-yl)ethoxy]phenoxy}-2-methylpropionic acid] | 95
3 | 6.35 | Cc1sc(-c2cccc(-c3ccccc3)c2)nc1CCOc1ccc(OC(C)(C)C(=O)O)cc1 [Example 46, 2-{4-[2-(2-Biphenyl-3-yl-5-methyl-thiazol-4-yl)-ethoxy]-phenoxy}-2-methyl-propionic acid] | 29
